The source of these data is article PMC12250302, “Synthesis, Antimicrobial Activities, and Model of Action of Novel Tetralone Derivatives Containing Aminoguanidinium Moiety” (International Journal of Molecular Sciences, 2025).

Common to all, as to assay: MIC and MBC testing, broth microdilution
One test has as its system E. faecium ATCC 35667. It is filed as cell-based, Enterococcus faecium. Particulars: Enterococcus faecium, ATCC35667, E. faecium ATCC 35667; for MIC: 18 h, read-out: MIC; for MBC: read-out: MBC. In short, it runs like this: (§1)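 Log-phase cultures diluted in Mueller-Hinton broth to 1 × 10^6 CFU/mL were exposed to doubling dilutions of DMSO-dissolved compounds at 37 °C for 18 h, each concentration in triplicate. Lowest concentration lacking visible growth recorded as MIC; controls were levofloxacin and 0.1% DMSO.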

A further test deals with A. baumannii ATCC 19606. It is filed as cell-based, Acinetobacter baumannii. The conditions noted are these: Acinetobacter baumannii; for MIC: ATCC19606, 18 h, read-out: MIC. In short, it runs like this:
as §1

Another test concerns S. aureus ATCC 29213. It is filed as cell-based, Staphylococcus aureus. Particulars: Staphylococcus aureus, ATCC29213, S. aureus ATCC 29213; for MIC: 18 h, read-out: MIC; for MBC: read-out: MBC. In a few lines:
as §1

The next test has as its system E. coli ATCC 25922. It is filed as cell-based, Escherichia coli. The conditions noted are these: Escherichia coli; for MIC: ATCC25922, 18 h, read-out: MIC. In a few lines:
as §1

In test [1] the test system is K. pneumoniae ATCC 700603. In kind it is cell-based, Klebsiella pneumoniae. The conditions noted are these: Klebsiella pneumoniae, ATCC700603, 18 h, read-out: MIC. In a few lines:
as §1

In the next test the test system is P. aeruginosa ATCC 27853. It is filed as cell-based, Pseudomonas aeruginosa. Particulars: Pseudomonas aeruginosa; for MIC: ATCC27853, 18 h, read-out: MIC. In a few lines: as §1
A further test relates to MRSA-2. In kind it is cell-based, Staphylococcus aureus. The conditions noted are these: Staphylococcus aureus, MRSA-2; for MIC: 18 h, read-out: MIC; for MBC: read-out: MBC. In short, it runs like this:
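Log-phase cultures, adjusted to 1 × 10^6 CFU/mL in MH broth, are exposed to twofold serial compound dilutions and held at 37 °C for 18 h. Triplicate per concentration; both inhibitory and bactericidal endpoints are taken.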

In test [2] the test system is clinical S. aureus isolate LMY48. It is filed as cell-based, Staphylococcus aureus. The conditions noted are these: Staphylococcus aureus, LMY48; for MIC: 18 h, read-out: MIC; for MBC: read-out: MBC. In a few lines: (§2)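 Broth microdilution in MH broth: 2-fold compound dilutions from DMSO stocks, log-phase clinical S. aureus isolates or MRSA-1 at 1 × 10^6 CFU/mL, 18 h at 37 °C, each concentration in triplicate. MIC recorded; MBC also determined.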

Test [3] deals with clinical S. aureus isolate LMY45. It is filed as cell-based, Staphylococcus aureus. The conditions noted are these: Staphylococcus aureus, LMY45; for MIC: 18 h, read-out: MIC; for MBC: read-out: MBC. In a few lines: as §2
Test [4] has as its system clinical S. aureus isolate LMY47. In kind it is cell-based, Staphylococcus aureus. The conditions noted are these: Staphylococcus aureus, LMY47; for MIC: 18 h, read-out: MIC; for MBC: read-out: MBC. In short, it runs like this:
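Compounds in DMSO were serially two-fold diluted in MH broth and mixed with log-phase bacteria diluted to 1 × 10^6 CFU/mL in MH broth, then incubated 18 h at 37 °C. MBC values were also determined. Each concentration was tested in triplicate.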

The test system of test [5] is clinical S. aureus isolate LMY46. In kind it is cell-based, Staphylococcus aureus. The conditions noted are these: Staphylococcus aureus, LMY46; for MIC: 18 h, read-out: MIC; for MBC: read-out: MBC. In a few lines: as §2
A further test deals with MRSA-1. In kind it is cell-based, Staphylococcus aureus. The conditions noted are these: Staphylococcus aureus, MRSA-1; for MIC: 18 h, read-out: MIC; for MBC: read-out: MBC. In a few lines: as §2

SMILES strings stand for the structures. Values after ≈ are worked out from the molar mass of the structure shown. Some results are limits rather than exact numbers.

Consider `[H]/N=C(\N)NN=C1CCCc2cc(OCCCCCCCC)ccc21` [Compound 2E, (E)-2-(6-(octyloxy)-3,4-dihydronaphthalen-1(2H)-ylidene)hydrazine-1-carboximidamide], for which the MIC is 2 µg/mL (≈ 6.05 µM) in the test on E. faecium ATCC 35667; 8 µg/mL (≈ 24.2 µM) in the test with A. baumannii ATCC 19606; 2 µg/mL (≈ 6.05 µM) in the test with S. aureus ATCC 29213; 4 µg/mL (≈ 12.1 µM) with E. coli ATCC 25922; > 32 µg/mL in test [1]; 32 µg/mL (≈ 96.8 µM) in the test on P. aeruginosa ATCC 27853. Moreover, the MIC with MRSA-2 stood at 1 µg/mL (≈ 3.03 µM); in test [2], 1 µg/mL (≈ 3.03 µM); in [3] it was 1 µg/mL (≈ 3.03 µM); in test [4], 2 µg/mL (≈ 6.05 µM); in test [5], 1 µg/mL (≈ 3.03 µM); in the test on MRSA-1, 1 µg/mL (≈ 3.03 µM). Further, the MBC with E. faecium ATCC 35667 is 4 µg/mL (≈ 12.1 µM); in the test on A. baumannii ATCC 19606 (ATCC19606, read-out: MBC), 32 µg/mL (≈ 96.8 µM); in the test with S. aureus ATCC 29213 it was 2 µg/mL (≈ 6.05 µM); in the test with E. coli ATCC 25922 (ATCC25922, read-out: MBC), 16 µg/mL (≈ 48.4 µM); in the test on P. aeruginosa ATCC 27853 (ATCC27853, read-out: MBC) it was > 32 µg/mL; with MRSA-2, 2 µg/mL (≈ 6.05 µM). For the same molecule, the MBC in test [2] stood at 2 µg/mL (≈ 6.05 µM); in test [3], 4 µg/mL (≈ 12.1 µM); in test [4] it was 4 µg/mL (≈ 12.1 µM); in [5] it was 4 µg/mL (≈ 12.1 µM); in the test on MRSA-1 it was 8 µg/mL (≈ 24.2 µM).
For the molecule `[H]/N=C(\N)NN=C1CCCc2cc(OCCCCCCCCC)ccc21` [Compound 2F, (E)-2-(6-(nonyloxy)-3,4-dihydronaphthalen-1(2H)-ylidene)hydrazine-1-carboximidamide], the MIC with E. faecium ATCC 35667 is 2 µg/mL (≈ 5.81 µM); with A. baumannii ATCC 19606 it was > 32 µg/mL; in the test with S. aureus ATCC 29213, 2 µg/mL (≈ 5.81 µM); in the test with E. coli ATCC 25922, > 32 µg/mL; in [1], > 32 µg/mL; with P. aeruginosa ATCC 27853, > 32 µg/mL. The MIC in the test on MRSA-2 came to 1 µg/mL (≈ 2.9 µM); in test [2], 1 µg/mL (≈ 2.9 µM); in [3], 2 µg/mL (≈ 5.81 µM); in [4], 2 µg/mL (≈ 5.81 µM); in test [5] it was 2 µg/mL (≈ 5.81 µM); in the test on MRSA-1 it was 2 µg/mL (≈ 5.81 µM). Also, the MBC came to 4 µg/mL (≈ 11.6 µM) in the test on E. faecium ATCC 35667; 8 µg/mL (≈ 23.2 µM) with S. aureus ATCC 29213; 2 µg/mL (≈ 5.81 µM) in the test with MRSA-2; 2 µg/mL (≈ 5.81 µM) in test [2]; 4 µg/mL (≈ 11.6 µM) in test [3]; 8 µg/mL (≈ 23.2 µM) in test [4]. Moreover, the MBC in test [5] was found to be 4 µg/mL (≈ 11.6 µM); in the test on MRSA-1, 2 µg/mL (≈ 5.81 µM).
With `[H]/N=C(\N)NN=C1CCCc2cc(OCCCCCCCCCC)ccc21` [Compound 2G, (E)-2-(6-(decyloxy)-3,4-dihydronaphthalen-1(2H)-ylidene)hydrazine-1-carboximidamide], the MIC is 2 µg/mL (≈ 5.58 µM) in the test on E. faecium ATCC 35667; > 32 µg/mL with A. baumannii ATCC 19606; 2 µg/mL (≈ 5.58 µM) in the test with S. aureus ATCC 29213; > 32 µg/mL with E. coli ATCC 25922; > 32 µg/mL in [1]; > 32 µg/mL with P. aeruginosa ATCC 27853. The minimal inhibitory concentration (MIC) in the test on MRSA-2 was determined as 4 µg/mL (≈ 11.2 µM); in test [2], 2 µg/mL (≈ 5.58 µM); in test [3] it was 4 µg/mL (≈ 11.2 µM); in test [4] it was 2 µg/mL (≈ 5.58 µM); in test [5], 4 µg/mL (≈ 11.2 µM); in the test with MRSA-1, 4 µg/mL (≈ 11.2 µM). The MBC in the test with E. faecium ATCC 35667 was 8 µg/mL (≈ 22.3 µM); in the test on S. aureus ATCC 29213, 8 µg/mL (≈ 22.3 µM); in the test on MRSA-2, 4 µg/mL (≈ 11.2 µM); in test [2], 4 µg/mL (≈ 11.2 µM); in test [3], 16 µg/mL (≈ 44.6 µM); in test [4] it was 2 µg/mL (≈ 5.58 µM). Also, the values for the MBC (in [5]; with MRSA-1) were 8 µg/mL (≈ 22.3 µM) and 16 µg/mL (≈ 44.6 µM), respectively.
Consider `[H]/N=C(\N)NN=C1CCCc2cc(OCCCCCCCCCCC)ccc21` [Compound 2H, (E)-2-(6-(undecyloxy)-3,4-dihydronaphthalen-1(2H)-ylidene)hydrazine-1-carboximidamide], for which the MIC in the test with E. faecium ATCC 35667 was 4 µg/mL (≈ 10.7 µM); with A. baumannii ATCC 19606, > 32 µg/mL; in the test on S. aureus ATCC 29213, > 32 µg/mL; with E. coli ATCC 25922, > 32 µg/mL; in test [1], > 32 µg/mL; with P. aeruginosa ATCC 27853, > 32 µg/mL. Besides, the MIC in the test on MRSA-2 was 4 µg/mL (≈ 10.7 µM); in [2], 4 µg/mL (≈ 10.7 µM); in test [3], 4 µg/mL (≈ 10.7 µM); in test [4], 2 µg/mL (≈ 5.37 µM); in test [5], 2 µg/mL (≈ 5.37 µM); in the test with MRSA-1, 4 µg/mL (≈ 10.7 µM). For the same molecule, the MBC with E. faecium ATCC 35667 turned out to be 8 µg/mL (≈ 21.5 µM); in the test on MRSA-2, 16 µg/mL (≈ 42.9 µM); in [2], 4 µg/mL (≈ 10.7 µM); in test [3] it was 8 µg/mL (≈ 21.5 µM); in test [4], 16 µg/mL (≈ 42.9 µM); in [5], 16 µg/mL (≈ 42.9 µM). Besides, the MBC in the test on MRSA-1 stood at 16 µg/mL (≈ 42.9 µM).

A word on the MIC: it is the least concentration at which growth counts as inhibited. A word on the MBC: it is the lowest tested concentration that kills the bacteria rather than only halting them.
